Measured values taken from PubChem BioAssay (NCI).
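Where inhibition never reached the appropriate level, the endpoint shown equals the highest concentration tested. Otherwise, values were interpolated linearly from a five-concentration, 48-hour dose response in 96-well plates. TGI denotes the concentration required for complete inhibition of growth.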

Columns and labels:
Assay in all cases: inhibition of tumour cell growth, NCI panel, 48 h
MOLT-4 leukemia = system: MOLT-4 leukemia
HOP-62 NSCLC = system: HOP-62 NSCLC
SNB-19 CNS = system: SNB-19 CNS
A498 renal = system: A498 renal
IGROV1 ovarian = system: IGROV1 ovarian
NCI/ADR-RES ovarian = system: NCI/ADR-RES ovarian
HS 578T breast = system: HS 578T breast
OVCAR-5 ovarian = system: OVCAR-5 ovarian
U251 CNS = system: U251 CNS
PC-3 prostate = system: PC-3 prostate
NCI-H460 lung = system: NCI-H460 lung
SK-MEL-2 melanoma = system: SK-MEL-2 melanoma
KM12 colon = system: KM12 colon
SF-539 CNS = system: SF-539 CNS
ACHN renal = system: ACHN renal
SR leukemia = system: SR leukemia
BT-549 breast = system: BT-549 breast
NCI-H226 lung = system: NCI-H226 lung
HCC-2998 colon = system: HCC-2998 colon
HOP-92 NSCLC = system: HOP-92 NSCLC
MDA-MB-231 breast = system: MDA-MB-231 breast
SF-295 CNS = system: SF-295 CNS
HCT-15 colon = system: HCT-15 colon
786-0 renal = system: 786-0 renal
OVCAR-4 ovarian = system: OVCAR-4 ovarian
CAKI-1 renal = system: CAKI-1 renal
K-562 leukemia = system: K-562 leukemia
SK-OV-3 ovarian = system: SK-OV-3 ovarian
MDA-MB-435 = system: MDA-MB-435
COLO 205 colon = system: COLO 205 colon
CCRF-CEM leukemia = system: CCRF-CEM leukemia
RXF 393 renal = system: RXF 393 renal
A549 NSCLC = system: A549 NSCLC
SK-MEL-5 melanoma = system: SK-MEL-5 melanoma
OVCAR-8 ovarian = system: OVCAR-8 ovarian
MDA-N = system: MDA-N
RPMI-8226 leukemia = system: RPMI-8226 leukemia
T-47D breast = system: T-47D breast
UACC-257 melanoma = system: UACC-257 melanoma
UACC-62 melanoma = system: UACC-62 melanoma
SF-268 CNS = system: SF-268 CNS
MCF7 breast = system: MCF7 breast
HCT-116 colon = system: HCT-116 colon
SN12C renal = system: SN12C renal
LOX IMVI melanoma = system: LOX IMVI melanoma
MALME-3M melanoma = system: MALME-3M melanoma
DU-145 prostate = system: DU-145 prostate
SK-MEL-28 melanoma = system: SK-MEL-28 melanoma
M14 melanoma = system: M14 melanoma
OVCAR-3 ovarian = system: OVCAR-3 ovarian
EKVX NSCLC = system: EKVX NSCLC
TK-10 renal = system: TK-10 renal
SW-620 colon = system: SW-620 colon
HL-60(TB) leukemia = system: HL-60(TB) leukemia
NCI-H23 lung = system: NCI-H23 lung
HT29 colon = system: HT29 colon
NCI-H522 lung = system: NCI-H522 lung
SNB-75 CNS = system: SNB-75 CNS

With `O=C(CSc1n[nH]c(=O)[nH]c1=O)NNC(=O)c1cccc2nc3ccccc3nc12` the TGI (MOLT-4 leukemia) was over 100 µM, the TGI (HOP-62 NSCLC) was over 100 µM and the TGI (SNB-19 CNS) was over 100 µM. For the same compound, the TGI (A498 renal) was over 100 µM, the TGI (IGROV1 ovarian) was over 100 µM and the TGI (NCI/ADR-RES ovarian) was over 100 µM. For the same compound, the TGI (HS 578T breast) was over 100 µM, the TGI (OVCAR-5 ovarian) was over 100 µM and the TGI (U251 CNS) was over 100 µM. It also gave a TGI (PC-3 prostate) of over 100 µM, a TGI (NCI-H460 lung) of over 100 µM and a TGI (SK-MEL-2 melanoma) of over 100 µM. The TGI (KM12 colon) was over 100 µM, the TGI (SF-539 CNS) was over 100 µM and the TGI (ACHN renal) was over 100 µM. The TGI (SR leukemia) was over 100 µM, the TGI (BT-549 breast) was 83.7 µM and the TGI (NCI-H226 lung) was over 100 µM. The TGI (HCC-2998 colon) was over 100 µM, the TGI (HOP-92 NSCLC) was over 100 µM and the TGI (MDA-MB-231 breast) was over 100 µM. The TGI (SF-295 CNS) was over 100 µM, the TGI (HCT-15 colon) was over 100 µM and the TGI (786-0 renal) was over 100 µM. It also gave a TGI (OVCAR-4 ovarian) of over 100 µM, a TGI (CAKI-1 renal) of over 100 µM and a TGI (K-562 leukemia) of over 100 µM. It also gave a TGI (SK-OV-3 ovarian) of over 100 µM, a TGI (MDA-MB-435) of over 100 µM and a TGI (COLO 205 colon) of over 100 µM. It also gave a TGI (CCRF-CEM leukemia) of over 100 µM, a TGI (RXF 393 renal) of over 100 µM and a TGI (A549 NSCLC) of over 100 µM. The TGI (SK-MEL-5 melanoma) was 45 µM, the TGI (OVCAR-8 ovarian) was over 100 µM and the TGI (MDA-N) was 97.5 µM. It also gave a TGI (RPMI-8226 leukemia) of over 100 µM, a TGI (T-47D breast) of over 100 µM and a TGI (UACC-257 melanoma) of over 100 µM. The TGI (UACC-62 melanoma) was over 100 µM, the TGI (SF-268 CNS) was over 100 µM and the TGI (MCF7 breast) was over 100 µM. It also gave a TGI (HCT-116 colon) of over 100 µM, a TGI (SN12C renal) of over 100 µM and a TGI (LOX IMVI melanoma) of over 100 µM. It also gave a TGI (MALME-3M melanoma) of 87.8 µM, a TGI (DU-145 prostate) of over 100 µM and a TGI (SK-MEL-28 melanoma) of over 100 µM. The TGI (M14 melanoma) was over 100 µM, the TGI (OVCAR-3 ovarian) was over 100 µM and the TGI (EKVX NSCLC) was over 100 µM. It also gave a TGI (TK-10 renal) of over 100 µM, a TGI (SW-620 colon) of over 100 µM and a TGI (HL-60(TB) leukemia) of over 100 µM. For the same compound, the TGI (NCI-H23 lung) was over 100 µM and the TGI (HT29 colon) was over 100 µM.

`CC1(C)CNC(=O)C2(C=NC(C)(C)CNC(=O)C3(C=N1)CCCO3)CCCO2` (centres undefined) showed a TGI (MOLT-4 leukemia) of over 10 µM, a TGI (HOP-62 NSCLC) of over 10 µM and a TGI (SNB-19 CNS) of over 10 µM. It also gave a TGI (A498 renal) of over 10 µM, a TGI (IGROV1 ovarian) of over 10 µM and a TGI (NCI/ADR-RES ovarian) of over 10 µM. The TGI (HS 578T breast) was over 10 µM, the TGI (U251 CNS) was over 10 µM and the TGI (PC-3 prostate) was over 10 µM. For the same compound, the TGI (KM12 colon) was over 10 µM, the TGI (SF-539 CNS) was over 10 µM and the TGI (ACHN renal) was over 10 µM. The TGI (SR leukemia) was over 10 µM, the TGI (BT-549 breast) was over 10 µM and the TGI (HCC-2998 colon) was over 10 µM. For the same compound, the TGI (HOP-92 NSCLC) was over 10 µM, the TGI (MDA-MB-231 breast) was over 10 µM and the TGI (SF-295 CNS) was over 10 µM. For the same compound, the TGI (HCT-15 colon) was over 10 µM, the TGI (786-0 renal) was over 10 µM and the TGI (OVCAR-4 ovarian) was over 10 µM. It also gave a TGI (CAKI-1 renal) of over 10 µM, a TGI (K-562 leukemia) of over 10 µM and a TGI (SK-OV-3 ovarian) of over 10 µM. It also gave a TGI (MDA-MB-435) of over 10 µM, a TGI (COLO 205 colon) of over 10 µM and a TGI (CCRF-CEM leukemia) of over 10 µM. The TGI (RXF 393 renal) was over 10 µM, the TGI (A549 NSCLC) was over 10 µM and the TGI (SK-MEL-5 melanoma) was over 10 µM. For the same compound, the TGI (OVCAR-8 ovarian) was over 10 µM, the TGI (MDA-N) was over 10 µM and the TGI (RPMI-8226 leukemia) was over 10 µM. For the same compound, the TGI (T-47D breast) was over 10 µM, the TGI (NCI-H522 lung) was over 10 µM and the TGI (UACC-257 melanoma) was over 10 µM. For the same compound, the TGI (UACC-62 melanoma) was over 10 µM, the TGI (SF-268 CNS) was over 10 µM and the TGI (MCF7 breast) was over 10 µM. It also gave a TGI (HCT-116 colon) of over 10 µM, a TGI (SN12C renal) of over 10 µM and a TGI (MALME-3M melanoma) of over 10 µM. It also gave a TGI (DU-145 prostate) of over 10 µM, a TGI (SK-MEL-28 melanoma) of over 10 µM and a TGI (M14 melanoma) of over 10 µM. It also gave a TGI (OVCAR-3 ovarian) of over 10 µM, a TGI (EKVX NSCLC) of over 10 µM and a TGI (TK-10 renal) of over 10 µM. For the same compound, the TGI (SNB-75 CNS) was over 10 µM, the TGI (SW-620 colon) was over 10 µM and the TGI (HL-60(TB) leukemia) was over 10 µM. The TGI (NCI-H23 lung) was over 10 µM and the TGI (HT29 colon) was over 10 µM.
